Among the data in ChEMBL document CHEMBL2203102, “Crucial Role of 3-Bromoethyl in Removing the Estrogenic Activity of 17β-HSD1 Inhibitor 16β-(m-Carbamoylbenzyl)estradiol” (ACS Med Chem Lett, 2011) are inhibition and Activity values, retold here.

Data set [1] has as its target T1, 17-beta-hydroxysteroid dehydrogenase type 1 (Homo sapiens) (UniProt P14061).
T1 sequence (whole entry): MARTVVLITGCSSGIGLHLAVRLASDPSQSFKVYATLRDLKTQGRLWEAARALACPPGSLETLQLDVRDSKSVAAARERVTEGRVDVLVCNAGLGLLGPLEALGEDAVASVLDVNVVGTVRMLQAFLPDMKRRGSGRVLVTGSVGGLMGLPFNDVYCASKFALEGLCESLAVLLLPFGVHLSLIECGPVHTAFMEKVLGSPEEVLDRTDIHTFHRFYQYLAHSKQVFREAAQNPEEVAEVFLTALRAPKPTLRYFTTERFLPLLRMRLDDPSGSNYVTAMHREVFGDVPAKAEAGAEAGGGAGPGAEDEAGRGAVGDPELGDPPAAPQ
Nature of the data set: Inhibition of 17beta-HSD1 in human T47D cells assessed as decrease in transformation of [14C]estrone to [14C]-estradiol at 0.01 uM after 24 hrs by thin layer chromatography. The format is cell-based.

The target in data set [2] is T1, 17-beta-hydroxysteroid dehydrogenase type 1 (Homo sapiens). Nature of the data set: Inhibition of 17beta-HSD1 in human T47D cells assessed as decrease in transformation of [14C]estrone to [14C]-estradiol at 0.1 uM after 24 hrs by thin layer chromatography. The class given is cell-based.
The test system of the next data set is MCF7. Nature of the data set: Estrogenic activity in estrogen-starved estrogen sensitive human MCF7 cells assessed as stimulation of cell proliferation at 0.1 to 1 uM after 7 days by CellTiter96 assay. The class given is ADME, cell-based. As to conditions: mcf7, 168 h.

For the compound `C[C@]12CC[C@@H]3c4ccc(CCO)cc4CC[C@H]3[C@@H]1C[C@H](Cc1cccc(C(N)=O)c1)[C@@H]2O`, the inhibition in data set [1] is 7%; in data set [2], 17%.

Take `C[C@]12CC[C@@H]3c4ccc(O)cc4CC[C@H]3[C@@H]1C[C@H](Cc1cccc(C(N)=O)c1)[C@@H]2O`: the figures for the inhibition in data set [1] and in data set [2] were 35% and 66%, respectively.

With `C[C@]12CC[C@@H]3c4ccc(CBr)cc4CC[C@H]3[C@@H]1C[C@H](Cc1cccc(C(N)=O)c1)[C@@H]2O`, the inhibition in data set [1] came to 20%; in data set [2], 36%.

In the case of `C[C@]12CC[C@@H]3c4ccc(CO)cc4CC[C@H]3[C@@H]1C[C@H](Cc1cccc(C(N)=O)c1)[C@@H]2O`, the inhibition in data set [1] is 14%.

For the compound `C[C@]12CC[C@@H]3c4ccc(CCBr)cc4CC[C@H]3[C@@H]1C[C@H](Cc1cccc(C(N)=O)c1)[C@@H]2O`, the Activity result in the data set on MCF7 is “Non-toxic”. In addition, the inhibition in data set [1] was 23%; in data set [2], 49%.

What is called inhibition is the share of the control response that was lost under treatment.
